Test systems include A549; ACHN; CAKI-1; DU-145; HCT-116; HOP-62; Hs-578T; Malme-3M; NCI-H23; NCI-H522; NCI/ADR-RES; OVCAR-5; SNB-75; T47D; UACC-257; UACC-62; UO-31; SF-539; SW-620.
What all share (assay): growth of human tumour cells (NCI), 48 h

The structures appear in SMILES notation.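 Following 48 hours of exposure in 96-well plates, responses at five concentrations were used to interpolate endpoints linearly. The concentration for 50% growth inhibition is given as GI50.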 The source made the active and inactive calls. Cut-off read from the data, not from the text of the source: active = GI50 up to about 1.1 µM and inactive = higher.

The record followed here is ChEMBL document CHEMBL1201862, “PubChem BioAssay data set” (2004).

On to `O=C1[C@@H](O)[C@@H]2CCCC[C@@]23CCCN13`, for which the GI50 in the assay with A549, with ACHN, in the assay on CAKI-1, with DU-145, in the assay with HCT-116 and with HOP-62 was > 100 µM (inactive) each time. The GI50 with Hs-578T, in the assay on Malme-3M, with NCI-H23, in the assay with NCI-H522, in the assay on NCI/ADR-RES and in the assay on OVCAR-5 was > 100 µM (inactive) each time. The GI50 was 37.6 µM (inactive) in the assay with SNB-75; > 100 µM (inactive) in the assay with T47D; > 100 µM (inactive) in the assay on UACC-257; > 100 µM (inactive) in the assay on UACC-62; > 100 µM (inactive) with UO-31.
Regarding `CCOC(=O)C(=O)CC(=O)C1=C(c2ccccc2OC)CC(c2cccs2)=CC1=O`, the GI50 in the assay with A549 was 43.5 µM (inactive); with ACHN, > 100 µM (inactive); with CAKI-1 it was 57.1 µM (inactive); in the assay with DU-145 it was > 100 µM (inactive); in the assay with HCT-116 it was 31.7 µM (inactive); in the assay on HOP-62, 45.4 µM (inactive). Further, the GI50 in the assay with Hs-578T was 2.75 µM (inactive); with Malme-3M, > 100 µM (inactive); in the assay with NCI-H23 it was > 100 µM (inactive); in the assay on NCI-H522, 20.9 µM (inactive); in the assay with NCI/ADR-RES it was 46 µM (inactive); in the assay with OVCAR-5 it was > 100 µM (inactive). Moreover, the GI50 with SF-539 was 67.1 µM (inactive); with SNB-75, 0.418 µM (active); in the assay on SW-620, 72.3 µM (inactive); in the assay on T47D it was 90.6 µM (inactive); in the assay with UACC-257, > 100 µM (inactive); with UACC-62, > 100 µM (inactive). The GI50 with UO-31 was > 100 µM (inactive).
For `S=C1CC(c2ccccc2)Sc2ccc(Cl)cc2N1` (stereo unspecified), the GI50 in the assay on A549 was 34.8 µM (inactive); in the assay with ACHN it was 58.1 µM (inactive); in the assay on CAKI-1, 63.7 µM (inactive); with DU-145, 42.9 µM (inactive); in the assay with HCT-116, 21.2 µM (inactive); in the assay on HOP-62, 45.6 µM (inactive). Besides, the GI50 with Hs-578T is 16.4 µM (inactive); with Malme-3M it was > 100 µM (inactive); in the assay with NCI-H23, 30.8 µM (inactive); in the assay with NCI-H522, 25.8 µM (inactive); in the assay with NCI/ADR-RES, 86.3 µM (inactive); in the assay on OVCAR-5, > 100 µM (inactive). Also, the GI50 with SNB-75 was 30 µM (inactive); in the assay with T47D it was 59.3 µM (inactive); in the assay with UACC-257, 18.1 µM (inactive); with UACC-62, 48.1 µM (inactive); with UO-31 it was 71.3 µM (inactive).
In the case of `C=C1CC(COc2ccc3ccc(=O)oc3c2)(c2ccccc2)OC1=O` (stereo unspecified), the GI50 was 10.6 µM (inactive) in the assay on A549; 2.01 µM (inactive) in the assay on ACHN; 0.885 µM (active) with CAKI-1; 2.77 µM (inactive) in the assay on DU-145; 0.597 µM (active) in the assay on HCT-116; 11.6 µM (inactive) in the assay on HOP-62. Moreover, the GI50 is 4.03 µM (inactive) with Hs-578T; 2.33 µM (inactive) in the assay with Malme-3M; 0.912 µM (active) in the assay with NCI-H23; 0.501 µM (active) with NCI-H522; 2.48 µM (inactive) with NCI/ADR-RES; 5.87 µM (inactive) in the assay with OVCAR-5. In addition, the GI50 with SF-539 is 3.46 µM (inactive); with SNB-75, 5.92 µM (inactive); in the assay on SW-620 it was 0.316 µM (active); with T47D, 1.87 µM (inactive); with UACC-257 it was 1.71 µM (inactive); in the assay with UACC-62 it was 1.45 µM (inactive). Further, in the assay on UO-31, the GI50 is 5.19 µM (inactive).
As to `CCOC(=O)N/N=C(\CC)OCC`, the GI50 in the assay on A549, in the assay with ACHN, in the assay on CAKI-1, in the assay with DU-145, in the assay on HCT-116 and in the assay with HOP-62 was > 100 µM (inactive) throughout. For the same compound, the GI50 with Hs-578T, in the assay with Malme-3M, in the assay with NCI-H522, with NCI/ADR-RES, with OVCAR-5 and with SF-539 was > 100 µM (inactive) each time. Also, the GI50 in the assay on SNB-75, in the assay with T47D, in the assay with UACC-257, in the assay on UACC-62 and in the assay with UO-31 was > 100 µM (inactive) in each case.
As to `CC(C)CC(=O)CC(O)C(Cl)(Cl)Cl` (stereo unspecified), the GI50 in the assay with A549, in the assay on ACHN, in the assay with CAKI-1, with DU-145, in the assay with HCT-116 and in the assay with HOP-62 was > 100 µM (inactive) throughout. Also, the GI50 with Hs-578T is 56.2 µM (inactive); in the assay with Malme-3M it was 20.7 µM (inactive); in the assay on NCI-H23 it was > 100 µM (inactive); in the assay with NCI-H522 it was 3.95 µM (inactive); in the assay with NCI/ADR-RES, > 100 µM (inactive); with OVCAR-5, > 100 µM (inactive). The GI50 in the assay on SNB-75, with SW-620, with T47D, in the assay on UACC-257, in the assay with UACC-62 and with UO-31 was > 100 µM (inactive) throughout.
For `Cc1ccc(F)c2[nH]c(-c3ccccc3)cc(=O)c12`, the GI50 in the assay on A549 is 4.97 µM (inactive); in the assay with ACHN it was 8.77 µM (inactive); in the assay with CAKI-1, > 100 µM (inactive); in the assay with DU-145, 8.04 µM (inactive); in the assay on HCT-116, 4.73 µM (inactive); in the assay with HOP-62 it was 5.9 µM (inactive). The GI50 in the assay on Hs-578T was 14.9 µM (inactive); in the assay on Malme-3M it was 17.9 µM (inactive); with NCI-H23, 9.46 µM (inactive); in the assay on NCI-H522 it was 5.69 µM (inactive); with NCI/ADR-RES it was 3.82 µM (inactive); in the assay with OVCAR-5 it was 9.1 µM (inactive). Moreover, the GI50 with SF-539 was 4.34 µM (inactive); with SNB-75, 6.18 µM (inactive); in the assay with SW-620, 4.67 µM (inactive); with T47D, 11.3 µM (inactive); in the assay on UACC-257, 58.5 µM (inactive); with UACC-62, 3.84 µM (inactive). For the same compound, the GI50 in the assay on UO-31 is 9.23 µM (inactive).
Regarding `CCOC(=O)C(=CNc1ccc(F)c(F)c1)C(=O)OCC`, the GI50 with A549, with ACHN, with CAKI-1, in the assay on DU-145, in the assay on HCT-116 and with HOP-62 was > 100 µM (inactive) throughout. Also, the GI50 in the assay with Hs-578T is > 100 µM (inactive); in the assay with Malme-3M, > 100 µM (inactive); in the assay on NCI-H23 it was > 100 µM (inactive); with NCI-H522, 81.7 µM (inactive); with NCI/ADR-RES it was > 100 µM (inactive); in the assay with OVCAR-5, > 100 µM (inactive). The GI50 in the assay with SF-539 was > 100 µM (inactive); in the assay on SNB-75 it was > 100 µM (inactive); in the assay with SW-620, > 100 µM (inactive); with T47D, 69.7 µM (inactive); in the assay with UACC-257, > 100 µM (inactive); in the assay on UO-31 it was 55.3 µM (inactive).
For the compound `O=C1c2ccccc2-c2ccc(/N=[N+](/[O-])c3ccc4c(c3)C(=O)c3ccccc3-4)cc21`, the GI50 in the assay with A549 was > 100 µM (inactive); in the assay with ACHN, > 100 µM (inactive); in the assay with CAKI-1 it was > 100 µM (inactive); in the assay on DU-145 it was > 100 µM (inactive); with HCT-116 it was > 100 µM (inactive); with HOP-62 it was 71.4 µM (inactive). The GI50 in the assay on Hs-578T, in the assay with Malme-3M, in the assay on NCI-H23, in the assay on NCI-H522, in the assay on NCI/ADR-RES and with OVCAR-5 was > 100 µM (inactive) throughout. Moreover, the GI50 in the assay on SNB-75, in the assay with SW-620, in the assay with T47D, with UACC-257, with UACC-62 and in the assay with UO-31 was > 100 µM (inactive) each time.
Take `Cc1ccc(S(=O)(=O)N2CC3OC(C)(C)OC3C2CO)cc1` (stereo unspecified): the GI50 in the assay with A549, with ACHN, in the assay on CAKI-1, in the assay with DU-145, in the assay with HCT-116 and in the assay with HOP-62 was > 100 µM (inactive) throughout. For the same compound, the GI50 in the assay on Hs-578T, in the assay on Malme-3M, in the assay with NCI-H522, with NCI/ADR-RES, with OVCAR-5 and with SF-539 was > 100 µM (inactive) throughout. Further, the GI50 in the assay with SNB-75, in the assay on SW-620, in the assay on T47D and in the assay on UACC-257 was > 100 µM (inactive) in each case.
For `O=C1O[C@H]2[C@H](OC(=O)c3cc(O)c(O)c(O)c3)[C@@H](OC(=O)c3cc(O)c(O)c4c3[C@@H]3C1=CC(=O)C(O)(O)C3(O)O4)[C@H](OC(=O)c1cc(O)c(O)c(O)c1)O[C@@H]2COC(=O)c1cc(O)c(O)c(O)c1` (stereo partly specified) [TERCHEBIN], the GI50 is 23.9 µM (inactive) in the assay on A549; 27.9 µM (inactive) in the assay with ACHN; 36.2 µM (inactive) in the assay with CAKI-1; 76 µM (inactive) in the assay with DU-145; 33 µM (inactive) with HCT-116; 99.3 µM (inactive) in the assay on HOP-62. Moreover, the GI50 was > 100 µM (inactive) in the assay on Hs-578T; > 100 µM (inactive) in the assay on Malme-3M; 42.8 µM (inactive) with NCI-H23; 32.1 µM (inactive) in the assay on NCI-H522; 53.2 µM (inactive) with NCI/ADR-RES; 65.6 µM (inactive) with OVCAR-5. The GI50 in the assay with SNB-75 was 49.9 µM (inactive); in the assay on SW-620, 63.5 µM (inactive); in the assay with T47D it was 54.7 µM (inactive); with UACC-257, > 100 µM (inactive); in the assay on UACC-62, 50.6 µM (inactive); in the assay on UO-31 it was 18.5 µM (inactive).
